This note sets out measurements from patent US5132320A, “Squalene synthetase inhibitors” (Merck & Co., Inc., priority 1990, dated 1992).

One experiment has as its target T1, Squalene Synthetase (Rattus norvegicus, UniProt Q02769).
T1 construct: from tissue; host or cells: liver microsomes of male Charles River CD rats fed 0.1% lovastatin for 4 days
T1 sequence (Q02769 1-416): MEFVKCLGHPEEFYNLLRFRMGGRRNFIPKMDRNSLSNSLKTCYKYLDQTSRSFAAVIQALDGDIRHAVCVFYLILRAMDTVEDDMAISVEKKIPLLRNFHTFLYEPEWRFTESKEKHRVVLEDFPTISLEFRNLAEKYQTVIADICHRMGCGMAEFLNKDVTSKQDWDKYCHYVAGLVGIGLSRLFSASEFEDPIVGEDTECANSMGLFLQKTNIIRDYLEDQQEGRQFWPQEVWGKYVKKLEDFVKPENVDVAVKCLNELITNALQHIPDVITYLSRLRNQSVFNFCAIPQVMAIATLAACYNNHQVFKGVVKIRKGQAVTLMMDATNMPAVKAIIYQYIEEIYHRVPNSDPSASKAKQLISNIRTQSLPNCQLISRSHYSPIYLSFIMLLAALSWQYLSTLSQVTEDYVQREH
Kind of experiment: squalene synthetase assay (rat liver microsomes, [4-14C]farnesyl-pyrophosphate). The class given is biochemical. As to conditions: 30° C., 20 minutes, pH 7.5. The procedure:
The intrinsic squalene synthetase inhibitory activity of representative compounds of this invention was measured by the standard in vitro protocol described below:
PREPARATION OF MICROSOMES
Male, Charles River CD rats (120 to 150 g) were fed a diet containing 0.1% lovastatin for 4 days. The livers from these rats were homogenized in 5 volumes (ml/g) of ice cold 50 mM HEPES (4-(2-hydroxyethyl)-1-piperazine-ethanesulfonic acid), 5 mM EDTA (ethylenediaminetetraacetic acid) pH 7.5 with a Potter-Elvehjem type tissue grinder. The homogenate was centrifuged twice at 20,000×g for 15 minutes at 4° C., discarding the pellet each time. The supernatant was then centrifuged at 100,000×g for 1 hour at 4° C. The resulting microsomal pellet was resuspended in a volume of the above homogenizing buffer equal to one-fifth the volume of the original homogenate. This microsomal preparation has a protein concentration of about 7 mg/ml. The microsomal suspensions were stored in aliquots at -70° C. Squalene synthetase activity in these aliquots is stable for at least several months.
Partial Purification of Prenyl Transferase
Prenyl transferase was purified to use in the enzymatic synthesis of radiolabelled farnesyl pyrophosphate. […]

The next experiment has as its system Fus. oxysporum MF4014. Kind of experiment: antifungal microtiter dilution assay, filamentous fungi (MIC). The class given is cell-based. As to conditions: Fusarium oxysporum, 42 hours, 28° C., read-out: Minimum Inhibitory Concentration. The procedure:
The compounds are particularly active towards filamentous fungi and yeasts including Candida albicans and Crypt. neoformans. The sensitivity of filamentous fungi and yeast was determined using inhibitor dilution assays in microtiter format. The compounds were dissolved in DMSO at 2 mg/ml and serially diluted in 0.1M phosphate buffer, pH 7.0 in the microtiter dish from 100 to 0.006 μg/ml. A standardized spore suspension for testing the filamentous fungi was prepared by inoculating Antibiotic Medium #3 containing 1.5% agar with spores such that 1.5×10^3 colony forming units were added per well. The microtiter wells were filled with 50 μl of buffer containing compound and 50 μl of inoculated medium. The sensitivity of yeasts was determined by inoculating yeast nitrogen base containing 1% dextrose (YNB/G) with aliquots of an overnight yeast culture grown in Yeast Morphology (YM) media at 35° C. and diluting in YNB/G to yield a final concentration of 1.5-7.5×10^3 colony forming units/well. One hundred fifty μl of inoculated media was added per well. To test the sensitivity of yeast, compound was solubilized in 10 percent aqueous DMSO at 2.56 mg/ml. The compound was diluted serially in YNB/G from 128 to 0.06 μg/ml. The wells were filled with 150 μl of drug containing media. […]

The structures appear in SMILES notation. Some results are limits rather than exact numbers.

The term IC50 denotes the concentration that gives 50% inhibition. Read a high IC50 as a need for much substance.

On Squalene Synthetase, `CC=CCCCCC=CCCCCC(=O)OC1C(O)C2(CCC(C)C(O)C(C)CC=Cc3ccccc3)OC(C(=O)O)C(O)(C(=O)O)C1(C(=O)O)O2` (stereo not drawn) [Compound A] came in with a concentration for half-maximal inhibition (IC50) of 0.005 µM. In addition, the MIC with Fus. oxysporum MF4014 is > 100 µg/mL.
On to `CC=CCCCCC=CCCCCC(=O)OC1C(O)C2(CCC(C)C(O)C(C)CC=Cc3ccccc3)OC(C(=O)OC)C(O)(C(=O)OC)C1(C(=O)OC)O2` (stereo not drawn) [Compound B], for which the IC50 against Squalene Synthetase amounted to 5 µM.
